The test system of one experiment is pericardial strips. The experiment in a line: Cold induced injury in a whole tissue ex-vivo model (pericardium). Format: cell-based, Wistar rats. The conditions noted are these: control sample incubated with all-caspase inhibitor before cold. The source says: To determine whether nitrated fatty acids can be used to preserve cells and tissues from cold or cryoinjury, an in vitro model utilizing murine epicardium was established. The experimental set-up should reduce the possibility of ischemia or reperfusion injury to a minimum, but at the same time allow differentiation of the contribution of ischemia/reperfusion injury-triggered cell death, which is known to occur almost exclusively via apoptosis, whereas cell death induced by cold injury almost exclusively results in necrosis.
The pericardial sac was carefully resected in 24 anesthetized Wistar rats (180-270 g) of either sex. Care was taken to grasp the pericardium with a forceps only at the cutting edges and reduce traumatization of the central portions of the pericardium to a minimum. After resection, the cutting edge and the former apex area of the pericardium were dissected, as to obtain flat tissue strips which were placed immediately in the culture medium (DMEM) containing 10% FCS and antibiotics (penicillin, streptomycin). Tissue samples were cultured in an oxygen atmosphere at 18° C. for 2 days. […] Then the pericardial strips were cut into 4 pieces of equal size. One piece was further cultivated at 37° C. without undergoing the cooling cycles, thus, serving as the control. In each of three investigations, one piece was bathed in a solution (0.9% saline and 1% SDS) containing 200 μmol nitro-fatty acid or contained 200 μmol of the corresponding native fatty acid, for 10 min at a temperature of 18° C. One piece of pericardium was bathed in a solution without fatty acids under otherwise identical conditions. All samples were cooled by continuously decreasing from ambient temperature at a rate of 3° C./min to a minimum temperature of […]. After 1 hour, the samples were rewarmed at a rate of 3° C./min by continuously increasing the temperature until a temperature of 18° C., was achieved. Thereafter an identical cooling and rewarming cycle was performed. After the second cooling cycle, the tissue pieces were further cultured in the culture medium for 1 day allowing continuous adaptation to an ambient temperature of 37° C. For analytical preparations the pericardial pieces were out and further processed. A direct TUNEL assay (Roche) was use for quantification of apoptosis, an annexin V/propidium iodide exclusion assay (Roche) was used to quantify the number of necrotic cells, and viability was determined by the WST-8 assay. Furthermore, the LDH release was quantified in the supernatants.
To rule out that cell death has been induced by ischemia or reperfusion (reoxygenation), in one series of experiments, a control sample was incubated with an all-caspase inhibitor (Q-VD-OPH, BioVision, USA) reconstituted in DMSO before the sample was exposed to cold.

The next experiment addresses T1, TRPV-1 (Mus musculus, UniProt Q704Y3).
T1 construct: Whole retinas were isolated and cut into 100 μm slices using a tissue slicer; from tissue; host or cells: mouse retinal slices (100 μm)
The experiment in a line: Signal transduction of receptors of the TRP-protein family in retinal slices. Format: cell-based, mice. The conditions noted are these: preincubation (5 minutes) of TRPV-1 antagonist, saline specimens. The procedure: In order to determine the effect of nitrated fatty acids on receptor signal transduction, an in vitro model was used. Retinal slices from cadaver mice were prepared as described by Snellman and Nawy (Snellman J. Nawy S (2004). cGMP-dependent kinase regulates response sensitivity of the mouse on bipolar cell. J Neurosci 24:6621-6628). Whole retinas were isolated and cut into 100 μm slices using a tissue slicer and than transferred to the recording chamber. The chamber was continuously perfused with Ames media and oxygenated. Picrotoxin (100 μM), strychnine (10 μM), and TPMPA (50 μM) were added. Each nitro fatty acid was added in two experiments to achieve a final concentration of 10 μmol, and in another two experiments to achieve a final concentration of 50 μmol. In two experiments, the corresponding native fatty acid was added to achieve a final concentration of 10 and 50 μmol, and in two experiments saline solution was added which served as controls. Currents were measured via tissue electrodes and monitored throughout the investigation. After incubating the solution for 2 hours, the TRPV-1 agonist capsaicin was added to achieve a final concentration of 10 μmol. Experiments were performed using either 10 mmol Hepes or 10 mmol Mes adjusting the pH of the solution to 6.4 or 4.4, respectively. Furthermore, experiments were performed without or with preincubation (5 minutes) of the TRPV-1 antagonist capsazepine. The solution temperature was held constant at 35° C.

The structures appear in SMILES notation.

T1 sequence (Q704Y3 whole entry): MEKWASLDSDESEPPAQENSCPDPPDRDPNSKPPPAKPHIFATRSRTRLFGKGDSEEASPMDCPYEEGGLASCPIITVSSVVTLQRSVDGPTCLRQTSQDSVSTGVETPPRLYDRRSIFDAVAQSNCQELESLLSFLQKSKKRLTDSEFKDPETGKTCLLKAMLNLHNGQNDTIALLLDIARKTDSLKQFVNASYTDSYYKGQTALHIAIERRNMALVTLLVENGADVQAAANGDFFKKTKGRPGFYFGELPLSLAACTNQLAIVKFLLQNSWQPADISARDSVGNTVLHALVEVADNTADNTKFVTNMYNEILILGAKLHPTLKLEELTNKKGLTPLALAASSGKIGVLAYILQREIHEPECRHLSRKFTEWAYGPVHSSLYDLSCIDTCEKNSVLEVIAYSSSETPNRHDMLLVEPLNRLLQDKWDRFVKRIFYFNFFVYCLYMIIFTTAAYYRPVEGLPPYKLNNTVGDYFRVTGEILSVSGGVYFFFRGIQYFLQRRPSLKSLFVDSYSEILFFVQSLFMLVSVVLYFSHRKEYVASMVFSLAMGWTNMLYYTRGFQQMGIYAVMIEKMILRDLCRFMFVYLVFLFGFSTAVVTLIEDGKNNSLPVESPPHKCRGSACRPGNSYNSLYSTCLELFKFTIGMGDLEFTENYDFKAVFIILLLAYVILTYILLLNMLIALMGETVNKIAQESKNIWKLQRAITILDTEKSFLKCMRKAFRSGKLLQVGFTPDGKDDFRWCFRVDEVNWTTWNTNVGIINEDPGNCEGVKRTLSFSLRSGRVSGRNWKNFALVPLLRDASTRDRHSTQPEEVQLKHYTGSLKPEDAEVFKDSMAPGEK

Turning to `CC(C)[C@H](NC(=O)c1ccc2ccccc2n1)C(=O)N[C@@H](CC(=O)O)C(=O)COc1c(F)cccc1F` [Q-VD-OPH, reference compound], the “rate of cells undergoing apoptosis” value with pericardial strips is given as “within the range found in the cold-exposed control samples”.

Take `Oc1cc2c(cc1O)CN(C(=S)NCCc1ccc(Cl)cc1)CCC2` [capsazepine, reference compound]: the “capsaicin effect (induced current)” value on TRPV-1 is given as “inhibited”.
